Measurements as given in the NIST ThermoML archive (doi:10.1021/acs.jced.9b00026).

Legend:
[1] = wn = mass fraction of the nth substance listed; details: for surface tension liquid-gas: Ring tensiometer; for mass density: 101 kPa, Liquid, Vibrating tube method
[2] = Ring tensiometer

C[C@H](O)C(=O)O [(S)-2-hydroxypropanoic acid] + O
[1]
Details | mass density, w1 = 0.01 [kg/m3] | surface tension liquid-gas, w1 = 0.002 [mN/m] | surface tension liquid-gas, w1 = 0.004 [mN/m] | surface tension liquid-gas, w1 = 0.006 [mN/m] | surface tension liquid-gas, w1 = 0.008 [mN/m]
298 K | 999.5 | 70.66 | 69.69 | 68.73 | 67.69
308 K | – | 69.32 | 68.36 | 67.63 | 67.06
318 K | – | 68.04 | 67.36 | 66.46 | 65.96
328 K | – | 67.07 | 66.17 | 65.34 | 64.92

O [water] + NC(=O)CC[C@H](N)C(=O)O
[1], w2 = 0
Details | surface tension liquid-gas [mN/m]
298 K | 71.06
308 K | 69.1
318 K | 68.31
328 K | 66.41

CCO [ethanol] + O
surface tension liquid-gas [mN/m], [1]
Details | w1 = 0.05 | w1 = 0.1 | w1 = 0.15 | w1 = 0.2
298 K | 55.14 | 47.34 | 41.96 | 38.2
313 K | 53.13 | 45.92 | 40.41 | 36.71

O [water]
[2]
Details | surface tension liquid-gas
298 K | 71.52 mN/m [middle of 7 runs]
308 K | 69.73 mN/m [middle of 7 runs]
313 K | 69.89 mN/m
318 K | 68.48 mN/m [middle of 7 runs]
328 K | 66.76 mN/m [middle of 7 runs]

O [water] + O=C(O)CC(O)C(=O)O
[1], w2 = 0
Details | surface tension liquid-gas [mN/m]
298 K | 71.52
308 K | 69.73
318 K | 68.3
328 K | 66.81

O [water] + CCO
[1], w2 = 0
Details | surface tension liquid-gas [mN/m]
298 K | 72.04
313 K | 69.89

N[C@@H](CO)C(=O)O [L-serine] + O
[1]
Details | mass density, w1 = 0.005 [kg/m3] | surface tension liquid-gas, w1 = 0.00504 [mN/m] | surface tension liquid-gas, w1 = 0.01 [mN/m] | surface tension liquid-gas, w1 = 0.02001 [mN/m] | surface tension liquid-gas, w1 = 0.03 [mN/m] | surface tension liquid-gas, w1 = 0.03999 [mN/m] | surface tension liquid-gas, w1 = 0.05 [mN/m]
298 K | 999.1 | 71.53 | 71.64 | 71.7 | 71.85 | 71.98 | 72.12
308 K | – | 69.85 | 69.98 | 70.15 | 70.31 | 70.44 | 70.56
318 K | – | 68.58 | 68.6 | 68.84 | 68.87 | 69.09 | 69.23
328 K | – | 66.76 | 66.84 | 67.01 | 67.19 | 67.28 | 67.5

O=C(O)CC(O)C(=O)O (stereo not drawn) [hydroxybutanedioic acid] + O
[1]
Details | mass density, w1 = 0.01 [kg/m3] | surface tension liquid-gas, w1 = 0.01049 [mN/m] | surface tension liquid-gas, w1 = 0.02026 [mN/m] | surface tension liquid-gas, w1 = 0.03004 [mN/m] | surface tension liquid-gas, w1 = 0.04002 [mN/m] | surface tension liquid-gas, w1 = 0.06001 [mN/m] | surface tension liquid-gas, w1 = 0.07998 [mN/m] | surface tension liquid-gas, w1 = 0.1 [mN/m]
298 K | 1000.8 | 71.39 | 71.2 | 71.09 | 70.92 | 70.61 | 70.44 | 70.2
308 K | – | 69.64 | 69.49 | 69.42 | 69.28 | 69.18 | 68.83 | 68.62
318 K | – | 68.16 | 68.16 | 68.11 | 67.78 | 67.63 | 67.49 | 67.25
328 K | – | 66.67 | 66.54 | 66.48 | 66.43 | 66.24 | 66.05 | 65.89

O [water] + C[C@H](O)C(=O)O
[1], w2 = 0
Details | surface tension liquid-gas [mN/m]
298 K | 71.53
308 K | 70.02
318 K | 68.48
328 K | 67.18
